Measurements reported in a melting point compilation (Tetko et al.; mined from patent text by program, amines drawn as free bases though some values may be those of a salt).

Row | SMILES | melting point [°C]
1 | CCCCCCCCCCCCCCCCCCOc1cc(C(N)=O)cc(N(CC(=O)OCc2ccccc2)CC(=O)OCc2ccccc2)c1 | 112 to 114
2 | O=C(O)C(Cc1ccc(OCc2ccccc2)cc1)c1ccccc1 (stereo unspecified) | 133 to 137
3 | COc1cc2c(c(OC(C)=O)c1)C1CCC3(C)C(=O)CCC3C1CC2 (stereo unspecified) | 144 to 145
4 | O=C1N(Cc2ccc(OC(F)(F)F)cc2)c2ccccc2C12COc1cc3c(cc12)OCO3 (stereo unspecified) | 99 to 101
5 | COc1ccc(CN(Cc2ccc(OC)cc2)S(=O)(=O)c2ccc(N(CCS(C)(=O)=O)Cc3ccc(C)cc3)cc2)cc1 | 85.7 to 86.6
6 | COC(=O)NN=C(C)c1cc(Cl)ccc1NS(=O)(=O)C(F)(F)F | 211 to 214
7 | COc1nc(NC(=O)NS(=O)(=O)c2ccccc2OC(F)F)nc(N(C)C)n1 | 171 to 172
8 | Nc1ccc(-c2ccc(Cl)cc2)c(Cl)n1 | 178 to 182
9 | COCCOCOc1c(C(C)(C)C)cc(-c2n[nH]c(=S)s2)cc1C(C)(C)C | 134 to 135
10 | CCCN(CCC)CCc1ccc(O)c2[nH]ncc12 | 125 to 127
11 | CCCc1nc2c(c(C)c(C)n3nnnc23)n1CC(C)(C)NS(C)(=O)=O | 190 to 192
12 | COc1cc(Nc2cccc(-c3ccccc3)c2)ccc1-c1cnco1 | 171 to 173
13 | Cc1nnc(C=O)n1-c1ccc(Cl)cc1C(=O)c1ccccc1 | 105 to 138
14 | FC(F)(F)c1ccc(-c2ccc3[nH]c4c(ccc5cc[nH]c54)c3c2)cc1 | > 250
15 | COC(=O)c1cc(S(=O)(=O)Cl)cc(C(=O)OC)c1[N+](=O)[O-] | 124 to 125
16 | COc1ccc(C(Sc2cc(Oc3ccccc3)ccc2N)C(O)C(=O)O)cc1Cl (stereo unspecified) | 168 to 170
17 | Fc1cccc(OC2CN(C(c3ccccc3)c3ccccc3)C2)c1 | 81 to 82
18 | CC1=c2c(cc3c(c2C)-c2ccccc2N=3)N=C1c1nc(C)no1 | 248 to 249
19 | Cc1ccc(OCCCCOc2ccc(C)cc2)cc1 | 104
20 | O=C(O)c1ncn2c1CN=C(c1ccccc1)c1cc(Cl)ccc1-2 | 268 to 270
21 | CCCCC(CC)CNc1nc(N)nc(N)n1 (stereo unspecified) | 81

Row | SMILES | melting point [°C]
22 | Nc1nc2ccccc2c2c1ncn2CCCCNC(=O)Oc1ccc2ccccc2c1 | 154 to 155
23 | CC1(c2ccccc2)Cc2cc(O)c(Cl)c(Cl)c2C1=O (stereo unspecified) | 194 to 196
24 | Cc1cc(C)c(Nc2nc(C)ncc2S(=O)(=O)c2ccc(-c3ncc[nH]3)cc2)c(C)c1 | 282 to 284
25 | Cc1cc(C)n(-c2cc(OS(C)(=O)=O)c(Cl)cc2F)n1 | 77.5 to 79
26 | CCCCCCc1cc2c(cc1S)C(=O)CC2 | 100
27 | CN(CCN1C(=O)c2ccccc2S1(=O)=O)C1COc2ccccc2O1 (stereo unspecified) | 181
28 | O=C(O)c1ccc(OCCCc2ccc(OCCCC3CCCCC3)cc2)c(C(=O)NC2CCCC(C(=O)O)C2)c1 (stereo unspecified) | 160
29 | Cn1c(C(F)(F)F)cc(=O)n(-c2cc(OS(=O)(=O)Cl)c(Cl)cc2F)c1=O | 133 to 135
30 | COc1ccc(-n2c(C)ccc2C)c(F)c1 | 67 to 69
31 | Cn1ncnc1COc1nc2c(-c3ccccc3F)nncn2c1-c1ccccc1 | 195
32 | COC(=O)C(C)=CNC(=O)Nc1cc(C(=O)OC(C)C)c(Cl)cc1F | 189 to 190
33 | O=C1CCN(c2cc3c(cc2-c2ccc(F)cc2)NC(=O)CC(c2cccc(-n4ccnc4)c2)=N3)CC1 | 204
34 | CNc1ccc(/C=C/c2c(F)cccc2Cl)cc1 | 43 to 45
35 | CCCc1cc(-c2csc(-c3ccc(OCC)c(OCC)c3)n2)cc(C(=O)O)c1O | 179 to 180
36 | CC(COS(C)(=O)=O)N1c2ccc(Cl)cc2Sc2ccc(C#N)cc21 (racemic) | 132
37 | O=C(NCN1CCCCCCCC1=O)NCN1CCCC1=O | 149 to 150
38 | Clc1cc(-c2ccc(CBr)c(Cl)c2)ccc1CBr | 148 to 154
39 | CCCCNC(=O)c1ccc(S(=O)(=O)CCCn2c(CCC)nc3c(N)nc(C)c(C)c32)cc1 | 147 to 149
40 | CC(C)C(OC(=O)C(C)(C)C)n1nnc(-c2ccccc2-c2ccc(Oc3c(C4CC4)nc4ccccc4c3C(=O)O)cc2)n1 (stereo unspecified) | 165 to 168
41 | Cc1nn(-c2cc3[nH]c(=O)ccc3cc2F)c(=O)n1C(F)F | 215 to 217
42 | CCN1CCN(Cc2ccc3c(c2)Cc2c(-c4cccs4)n[nH]c2-3)CC1 | 170

Continued, values first:

Row | melting point [°C] | SMILES
43 | 93 to 94 | COc1ccc(CC(O)c2ccccn2)cc1OC (stereo unspecified)
44 | 104 to 106 | ClCC1c2ccccc2Oc2ccccc21
45 | 144 to 145 | O=C1c2c(F)ccc(F)c2C(=O)N1CCN1CCC(c2noc3cc(F)ccc23)CC1
46 | 165 to 166 | CC(C)(C)c1cc(C(=O)c2ccc(Cl)cc2)cc(CN2CCOCC2)c1O
47 | 247 to 248 | CCc1cnc2ccnn2c1O
48 | 62 to 64 | N#Cc1ccc(C(CC2CCCC2)C(=O)Nc2nccs2)cc1 (stereo unspecified)
49 | 196 | CCOC(=O)N1CCN(c2ccc(-n3cc[nH]c3=O)cc2)CC1
50 | 70 to 72 | COC(=O)c1cccc2c(C(=O)c3ccccc3)c(C)oc12
51 | 70 | O=c1c2c(cnn1Cc1ccccc1)C(Cc1ccccc1)NCCO2 (stereo unspecified)
52 | 165 to 169 | Cc1ccc(S(=O)(=O)N2CCC(c3ccc4c(c3)C(=O)CCCC4)CC2)cc1
53 | 195 to 197 | C=CC(=O)Nc1cccc(CCCc2n[nH]c3cc(C)nn23)c1
54 | 118 to 120 | CCOC(=O)c1c(C)nc2sc3c(c2c1-c1ccccc1)CCCC3
55 | 123 to 126 | O=C(Nc1cc(-c2cccc(C(F)(F)F)c2)no1)c1c(F)cccc1F
56 | 158 | O=C(NOCCNc1ccccc1)c1ccc(F)c(F)c1Nc1ccc(I)cc1Cl
57 | 219 to 221 | C[C@H](NC(=O)c1cc(F)cc(NS(=O)(=O)CC2CN(C(c3ccc(Cl)cc3)c3ccc(Cl)cc3)C2)c1)C(N)=O
58 | 136 to 137 | O=C(NCCO)c1cccc(-c2cccc3nn(Cc4cccc(C(F)(F)F)c4)cc23)c1
59 | 67 to 68 | CCN(CC)C(=O)n1ccc(S(=O)(=O)c2ccccc2OC)n1
60 | 117 to 118 | c1ccc2c(c1)OCCO2
61 | 135 | CCOC(=O)C(Cc1nc2ccccc2n1Cc1ccc([N+](=O)[O-])cc1)C(=O)OCC
62 | 242 | CC=CCNc1cc(C(=O)O)cc(S(N)(=O)=O)c1Sc1ccc(N)cc1

Row | melting point [°C] | SMILES
63 | 120 | NC(=O)c1cnn2cccc2c1NCC1CCCO1 (stereo unspecified)
64 | 208 to 209 | COc1ccccc1Sc1c(O)cc(-c2ccccc2)oc1=O
65 | 174 to 175 | CC(C(N)=O)c1ccc2c(c1)CCc1cccnc1S2 (stereo unspecified)
66 | 290 | O=C(O)c1cnc2cc(F)c(F)cc2c1
67 | 260 to 261 | NC(=O)c1cccc2c1nc(-c1c(F)cccc1F)n2Cc1c(F)cccc1F
68 | > 360 | Cn1c2ccc(Cl)cc2c(=O)n2nc(C(N)=O)cc12
69 | 189 to 193 | O=C(NCc1ccccc1)c1cnc(-c2ccccc2)nc1S
70 | 165 to 167 | CCOC(=O)C(C)(C)NC(=O)c1nnc2ccc(NCCCN3CCC(OC(c4ccccc4)c4ccccc4)CC3)nn12
71 | 138 | CC(=O)N1CC(=O)c2ccccc21
72 | 114 to 116 | COC(=O)COc1coc2ccccc2c1=O
73 | 74 to 75 | CC(C)(C)c1ccc(C(N)=CC#N)cc1
74 | 110 | Cc1ccc(S(=O)(=O)O[C@H]2CCN(S(=O)(=O)c3ccc(C)cc3)C2)cc1
75 | 114 | CC(C)(C)OC(=O)NCC1CCc2cc(O)ccc2C1 (stereo unspecified)
76 | 212 to 214 | COCc1cccc2sc(C(=O)O)cc12
77 | 134 to 136 | O=C1c2c(-c3ccccc3)c3cc(Cl)ccc3n2CCN1CCN1CCCC1
78 | 207 to 209 | Cc1nc(-c2ccc(C(F)(F)F)cc2)sc1CSc1ccc2oc(C(=O)O)cc2c1
79 | 82 to 84 | CCCc1c(OCc2ccccc2)ccc2c1OC(C(=O)OC)(C1CC1C(=O)OC)CC2 (stereo unspecified)
80 | 92 to 93 | CCOC(=O)N1CCN(C2Cc3cc(Cl)ccc3Sc3ccccc32)CC1 (stereo unspecified)
81 | 187 to 188 | CCCN1CCc2[nH]c3ccc4scc(-c5ccccc5)c4c3c2C1
82 | 94 to 96 | CCCCCC(=O)c1cnc2c(OC)cccc2c1Nc1ccccc1C

Row | melting point [°C] | SMILES
83 | 70 to 71 | O=C1c2ccccc2CN1CCCOc1ccncc1
84 | 183 | COCCO[C@@H]1c2ccc3c(nc(C)n3C3CC3)c2O[C@H](c2ccccc2)[C@H]1O
85 | 144 to 145 | C=CCCN1CCN(c2nc(C)c(C(=O)NCc3cccnc3)s2)C1=O
86 | 67.3 | C=CC(=O)O[C@H]1CC[C@H](c2ccccc2)CC1
87 | 163 | COC(=O)c1cnc(S)n1C1CCSc2ccccc21 (stereo unspecified)
88 | 132 to 135 | COC(=O)NC(CC(=O)c1ccccc1)C(=O)O (stereo unspecified)
89 | 70 to 80 | Cc1noc(NS(=O)(=O)c2ccccc2-c2ccccc2CO)c1C
90 | 194 to 195 | O=C(NCCO)c1cccc(-c2ncc3ccn(Cc4ccc(Cl)cc4Cl)c3n2)c1
91 | 224 to 227 | CC(=O)N(C(C)=O)c1ccc(C2=NN(C(C)=O)C(C)Cc3cc4c(cc32)OCO4)cc1 (stereo unspecified)
92 | 160 to 162 | COC(=O)c1cc(OC(C)=O)c2cc[nH]c2c1
93 | 198 to 199 | COC(=O)NNc1cc(C)c(-c2cccc([N+](=O)[O-])c2)nn1
94 | 192 to 194 | O=C(OCCc1ccc([N+](=O)[O-])cc1)C1Cc2c(ccc3[nH]ccc23)N1 (stereo unspecified)
95 | 130 to 133 | COc1c(F)c(F)cc(C(N)=O)c1F
96 | 71 to 75 | Cc1cn(C(C)(C)C(=O)NC(C)(C)C)nc1-c1ccccc1
97 | 158 to 160 | NC(=O)N(O)Cc1ccc(Sc2ccc(Cl)cc2)s1
98 | 154 | CCSC(c1ccc(Cl)cc1)C(C(=O)C(C)(C)C)n1cncn1 (stereo unspecified)
99 | 156 to 161 | NC12CC=CCC1CCc1ccc(O)cc12 (stereo unspecified)
100 | 104 to 105 | CNC(=O)C(=NOC)c1ccccc1COc1ncc(C)cc1Br
101 | > 310 | CCC(C)NC1=NS(=O)(=O)c2cc(C(=O)O)ccc2N1 (stereo unspecified)
